Assay results published in US10633353B2, “Polymerizable compound, composition, polymer, optically anisotropic body, liquid crystal display element, and organic EL display” (DIC Corporation, priority 2014, dated 2020).

Assay: Preservation stability of the coating liquid
Format: physicochemical
Settings: coating liquid stored for 2 months shielded from light at 0° C.; appearance and GPC
Summary of the method: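 Coating liquid stored 2 months at 0° C shielded from light, then graded A–E. Grades rest on visual appearance, change in composition by GPC, and weight ratio of insoluble components to total solids.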

| Structure (SMILES) | Preservation stability |
| --- | --- |
| C=CC(=O)OCCCCCCOc1ccc(OC(=O)C2CCC(C(=O)OCCc3ccc(OC(=O)C4CCC(C(=O)Oc5ccc(OCCCCCCOC(=O)C=C)cc5)CC4)c(/C=N/N(CCCCCC)c4nc5ccccc5s4)c3)CC2)cc1 (centres unmarked) [1-cmn-82] | A (No visual change in the appearance of the coating liquid was confirmed. A GPC analysis of the coating liquid confirmed that the change in the composition of the coating liquid was 1% or less.) |
| C=CC(=O)OCCCCCOc1ccc(C(=O)OCCc2ccc(OC(=O)c3ccc(OCCCCCOC(=O)C=C)cc3)c(/C=N/Nc3nc4ccccc4s3)c2)cc1 [1-c-4] | A (No visual change in the appearance of the coating liquid was confirmed. A GPC analysis of the coating liquid confirmed that the change in the composition of the coating liquid was 1% or less.) |
| C=CC(=O)OCCCOc1ccc(/C=C/C(=O)Oc2ccc(OC(=O)/C=C/c3ccc(OCCCOC(=O)C=C)cc3)c(/C=N/Nc3nc4ccccc4s3)c2)cc1 [1-c-44] | B (No visual change in the appearance of the coating liquid was confirmed. A GPC analysis of the coating liquid confirmed that the change in the composition of the coating liquid was 2% or less.) |
| C=CC(=O)OCCCCCCOc1ccc(C(=O)OCCc2ccc(CCOC(=O)c3ccc(OCCCCCCOC(=O)C=C)cc3)c(/C=N/Nc3nc4ccccc4s3)c2)cc1 [1-c-12] | A (No visual change in the appearance of the coating liquid was confirmed. A GPC analysis of the coating liquid confirmed that the change in the composition of the coating liquid was 1% or less.) |
| C=CC(=O)OCCCOc1ccc(OC(=O)C2CCC(COc3ccc(OCC4CCC(C(=O)Oc5ccc(OCCCOC(=O)C=C)cc5)CC4)c(/C=N/Nc4nc5ccccc5s4)c3)CC2)cc1 (centres unmarked) [1-cm-89] | A (No visual change in the appearance of the coating liquid was confirmed. A GPC analysis of the coating liquid confirmed that the change in the composition of the coating liquid was 1% or less.) |
| C=CC(=O)OCCCOc1ccc(C(=O)Oc2ccc(OCCCOC(=O)C=C)cc2/C=N/Nc2nc3ccccc3s2)cc1 [1-e-69] | A (No visual change in the appearance of the coating liquid was confirmed. A GPC analysis of the coating liquid confirmed that the change in the composition of the coating liquid was 1% or less.) |
| C=CC(=O)OCCCOc1ccc(/C=C/C(=O)Oc2ccc(OC(=O)/C=C/c3ccc(OCCCOC(=O)C=C)c(OC)c3)c(/C=N/Nc3nc4ccccc4s3)c2)cc1OC [1-c-46] | B (No visual change in the appearance of the coating liquid was confirmed. A GPC analysis of the coating liquid confirmed that the change in the composition of the coating liquid was 2% or less.) |
| C=CC(=O)OCCCOc1ccc(OC(=O)C2CCC(C(=O)OCCc3ccc(OC(=O)C4CCC(C(=O)Oc5ccc(OCCCOC(=O)C=C)cc5)CC4)c(C=NNc4nc5ccccc5s4)c3)CC2)cc1 (centres unmarked) [1-c-13] | A (No visual change in the appearance of the coating liquid was confirmed. A GPC analysis of the coating liquid confirmed that the change in the composition of the coating liquid was 1% or less.) |
| C=CC(=O)OCCCCCCOc1ccc(OC(=O)C2CCC(C(=O)OCCc3ccc(OC(=O)C4CCC(C(=O)Oc5ccc(OCCCCCCOC(=O)C=C)cc5)CC4)c(/C=N/Nc4cccc5ccccc45)c3)CC2)cc1 (centres unmarked) [1-c-42] | B (No visual change in the appearance of the coating liquid was confirmed. A GPC analysis of the coating liquid confirmed that the change in the composition of the coating liquid was 2% or less.) |
| C=CC(=O)OCCCCOC(=O)C1CCC(C(=O)OC2CCC(C(=O)Oc3ccc(OC(=O)C4CCC(OC(=O)C5CCC(C(=O)OCCCCOC(=O)C=C)CC5)CC4)c(/C=N/Nc4nc5ccccc5s4)c3)CC2)CC1 (centres unmarked) [1-f-20] | A (No visual change in the appearance of the coating liquid was confirmed. A GPC analysis of the coating liquid confirmed that the change in the composition of the coating liquid was 1% or less.) |
| C=CC(=O)Oc1ccc(C(=O)OCCc2ccc(CCOC(=O)c3ccc(OC(=O)C=C)cc3)c(/C=N/Nc3nc4ccccc4s3)c2)cc1 [1-cg-37] | B (No visual change in the appearance of the coating liquid was confirmed. A GPC analysis of the coating liquid confirmed that the change in the composition of the coating liquid was 2% or less.) |
| C=CC(=O)OCCCCCCOC1CCC(C(=O)Oc2ccc(OC(=O)C3CCC(OCCCCCCOC(=O)C=C)CC3)c(/C=N/N(c3ccccc3)c3ccccc3)c2)CC1 (centres unmarked) [1-f-21] | A (No visual change in the appearance of the coating liquid was confirmed. A GPC analysis of the coating liquid confirmed that the change in the composition of the coating liquid was 1% or less.) |
| C=CC(=O)OCCCCCCOc1ccc(C(=O)Oc2ccc(-c3ccc(OC(=O)c4ccc(OCCCCCCOC(=O)C=C)cc4)c(/C=N/Nc4nc5ccccc5s4)c3)cc2)cc1 [1-hk-84] | A (No visual change in the appearance of the coating liquid was confirmed. A GPC analysis of the coating liquid confirmed that the change in the composition of the coating liquid was 1% or less.) |
| C=CC(=O)OCCCCOc1ccc(C(=O)OCCc2ccc(OC(=O)c3ccc(OCCCCOC(=O)CC)cc3)c(/C=N/Nc3cc4ccccc4[nH]3)c2)cc1 [1-c-28] | B (No visual change in the appearance of the coating liquid was confirmed. A GPC analysis of the coating liquid confirmed that the change in the composition of the coating liquid was 2% or less.) |
| C=CC(=O)OCCCCOc1ccc(/C=C/C(=O)Oc2ccc(OC(=O)/C=C/c3ccc(OCCCCOC(=O)C=C)cc3)c(/C=N/Nc3nc4ccccc4s3)c2)cc1 [1-c-45] | B (No visual change in the appearance of the coating liquid was confirmed. A GPC analysis of the coating liquid confirmed that the change in the composition of the coating liquid was 2% or less.) |
| C=C(C)C(=O)OCCCCOc1ccc(C(=O)OCCc2ccc(OC(=O)c3ccc(OCCCCOC(=O)C(=C)C)cc3)c(/C=N/Nc3nc4ccccc4s3)c2)cc1 [1-c-6] | A (No visual change in the appearance of the coating liquid was confirmed. A GPC analysis of the coating liquid confirmed that the change in the composition of the coating liquid was 1% or less.) |
| C=CC(=O)OCCCCOC(=O)C1CCC(C(=O)OC2CCC(C(=O)Oc3ccc(OC(=O)C4CCC(OC(=O)C5CCC(C(=O)OCCCCOC(=O)C=C)CC5)CC4)c(/C=N/N(C)c4nc5ccccc5s4)c3)CC2)CC1 (centres unmarked) [1-f-103] | A (No visual change in the appearance of the coating liquid was confirmed. A GPC analysis of the coating liquid confirmed that the change in the composition of the coating liquid was 1% or less.) |
| C=CC(=O)OCCCCCCOc1ccc(C(=O)Oc2ccc(-c3ccc(OC(=O)c4ccc(OCCCCCCOC(=O)C=C)cc4)cc3C=NN=C3c4ccccc4-c4ccccc43)cc2)cc1 [1-hk-86] | A (No visual change in the appearance of the coating liquid was confirmed. A GPC analysis of the coating liquid confirmed that the change in the composition of the coating liquid was 1% or less.) |
| C=CC(=O)OCCCCCCOc1ccc(C(=O)OCCc2ccc(OC(=O)c3ccc(OCCCCCCOC(=O)C=C)cc3)c(/C=N/Nc3nc4ccccc4s3)c2)cc1 [1-c-1] | A (No visual change in the appearance of the coating liquid was confirmed. A GPC analysis of the coating liquid confirmed that the change in the composition of the coating liquid was 1% or less.) |
| C=C(C)C(=O)OCCCOc1ccc(/C=C/C(=O)Oc2ccc(OC(=O)/C=C/c3ccc(OCCCOC(=O)C(=C)C)cc3)c(/C=N/Nc3nc4ccccc4s3)c2)cc1 [1-c-48] | B (No visual change in the appearance of the coating liquid was confirmed. A GPC analysis of the coating liquid confirmed that the change in the composition of the coating liquid was 2% or less.) |
| C=CC(=O)OCCOCCOCCOc1ccc(OC(=O)C2CCC(COc3ccc(OCC4CCC(C(=O)Oc5ccc(OCCOCCOCCOC(=O)C=C)cc5)CC4)c(/C=N/N(CCCCCC)c4nc5ccccc5s4)c3)CC2)cc1 (centres unmarked) [1-cmn-90] | A (No visual change in the appearance of the coating liquid was confirmed. A GPC analysis of the coating liquid confirmed that the change in the composition of the coating liquid was 1% or less.) |
| C=CC(=O)OCCCOc1ccc(C(=O)OCCc2ccc(OC(=O)c3ccc(OCCCOC(=O)C=C)cc3)c(/C=N/Nc3nc4ccccc4s3)c2)cc1 [1-c-2] | A (No visual change in the appearance of the coating liquid was confirmed. A GPC analysis of the coating liquid confirmed that the change in the composition of the coating liquid was 1% or less.) |

Same assay, conditions: summary in words

| Structure (SMILES) | Preservation stability |
| --- | --- |
| C=CC(=O)OCCCCCCOc1ccc(OC(=O)C2CCC(C(=O)OCCc3ccc(OC(=O)C4CCC(C(=O)Oc5ccc(OCCCCCCOC(=O)C=C)cc5)CC4)c(/C=N/N(CCCCCC)c4nc5ccccc5s4)c3)CC2)cc1 (centres unmarked) [1-cmn-82] | high |
| C=CC(=O)OCCCCCCOc1ccc(C(=O)Oc2ccc(-c3ccc(OC(=O)c4ccc(OCCCCCCOC(=O)C=C)cc4)c(/C=N/Nc4nc5ccccc5s4)c3)cc2)cc1 [1-hk-84] | high |
| C=CC(=O)OCCCCCCOc1ccc(C(=O)Oc2ccc(-c3ccc(OC(=O)c4ccc(OCCCCCCOC(=O)C=C)cc4)cc3C=NN=C3c4ccccc4-c4ccccc43)cc2)cc1 [1-hk-86] | high |

Assay: Optical stability of the optical film (xenon-lamp irradiation)
Format: physicochemical
Settings: summary in words
Method: The coating liquid was applied to a glass substrate by spin coating, the glass substrate including a rubbed polyimide layer deposited thereon. The glass substrate was then placed on a hot plate, dried at 80° C. for 1 minute, and further dried at 140° C. for another 1 minute. Subsequently, irradiation with ultraviolet radiation at 1000 mJ/cm and 140° C. was performed.
The optical film was irradiated with light at 50 mW/cm^2, 25° C., and 100 J using a xenon-lamp irradiation testing machine (SUNTEST XLS, produced by Atlas). The optical stability of the optical film was evaluated on a scale of A to E below.
A: No change in the film was visually confirmed. An inspection of the optical film with a polarized light microscope also confirmed no defects.
B: Although no change in the film was visually confirmed, an inspection of the optical film with a polarized light microscope confirmed slight orientation defects.
C: Slight yellowing of the film was visually confirmed.
D: Yellowing of the film was visually confirmed. In addition, the optical film was partly detached from the glass substrate.
E: Yellowing of the entire film was visually confirmed. In addition, the optical film was detached from the glass substrate.

| Structure (SMILES) | optical stability |
| --- | --- |
| C=CC(=O)OCCCCCCOc1ccc(OC(=O)C2CCC(C(=O)OCCc3ccc(OC(=O)C4CCC(C(=O)Oc5ccc(OCCCCCCOC(=O)C=C)cc5)CC4)c(/C=N/N(CCCCCC)c4nc5ccccc5s4)c3)CC2)cc1 (centres unmarked) [1-cmn-82] | high |
